Reference: paper PMC7934871 (JCI Insight, 2021)
Non-standard residues stand in square brackets, D forms with d. No end group written: not given here. pY = N[C@@H](Cc1ccc(OP(=O)(O)O)cc1)C(=O)O

Columns and labels:
STAT3 = STAT3 (Homo sapiens, UniProt P40763); test: Immunoprecipitation and Western blotting, STAT3; format: binding; set-up: endogenous in cells; host or cells: U251; conditions: immunoprecipitation, Western blotting, U251 cells
Excerpt: (§1) Figure 2 PS-acet.-STAT3-peptide specifically binds STAT3 in the nucleus. (A) Penetration of PS-acet.-STAT3 peptide and its colocalization with STAT3 protein in U251 cells are confirmed by confocal microscopy. Scale bars: 50 μm. Insets: original magnification, ×40. (B) PS-acet.-STAT3 peptide specifically binds to STAT3 protein, not STAT1 and STAT5 proteins, shown in U251 cells by immunoprecipitation followed by Western blotting (left panel). Expression of total STAT1, STAT3, and STAT5 was confirmed by Western blotting in U251 cells (input protein level, right panel).
(§2) Whole cell lysates or tissue homogenates were prepared by using RIPA lysis buffer (50 mM Tris at pH 7.4, 150 mM NaCl, 1 mM EDTA, 0.5% NP-40, 1 mM NaF, 15% glycerol, and 20 mM β-glycerophosphate). […] Protein amounts were determined by BCA using a Thermo Fisher Scientific kit. […] The protein levels for STAT1 (sc-346, E-23), STAT3 (sc-482, C-20), STAT5 (sc-74442, A-9), Crm1 (exportin 1) (sc-5595, H-300), CAS (exportin 2) (sc-271537, H-2), exportin 5 (sc-66885, H-300), and exportin 7 (sc-98639, H-82) were determined using antibodies from Santa Cruz Biotechnology Inc. Anti–exportin 3 (exportin T, 630622, LOS1 05-1525), anti–exportin 4 (3499-1), and anti–exportin 6 (11408-1-AP) were from MilliporeSigma, Epitomics, and Proteintech, respectively. […]

exportin 7 = target: T1, exportin 7 (Homo sapiens, UniProt Q9UIA9); test: Immunoprecipitation of FAM-labeled peptide and Western blotting, exportin 7; format: binding; conditions: anti-FITC (FAM) immunoprecipitation, Western blotting, U251 cells
T1 construct: endogenous in cells; host or cells: U251
T1 sequence (Q9UIA9 whole entry): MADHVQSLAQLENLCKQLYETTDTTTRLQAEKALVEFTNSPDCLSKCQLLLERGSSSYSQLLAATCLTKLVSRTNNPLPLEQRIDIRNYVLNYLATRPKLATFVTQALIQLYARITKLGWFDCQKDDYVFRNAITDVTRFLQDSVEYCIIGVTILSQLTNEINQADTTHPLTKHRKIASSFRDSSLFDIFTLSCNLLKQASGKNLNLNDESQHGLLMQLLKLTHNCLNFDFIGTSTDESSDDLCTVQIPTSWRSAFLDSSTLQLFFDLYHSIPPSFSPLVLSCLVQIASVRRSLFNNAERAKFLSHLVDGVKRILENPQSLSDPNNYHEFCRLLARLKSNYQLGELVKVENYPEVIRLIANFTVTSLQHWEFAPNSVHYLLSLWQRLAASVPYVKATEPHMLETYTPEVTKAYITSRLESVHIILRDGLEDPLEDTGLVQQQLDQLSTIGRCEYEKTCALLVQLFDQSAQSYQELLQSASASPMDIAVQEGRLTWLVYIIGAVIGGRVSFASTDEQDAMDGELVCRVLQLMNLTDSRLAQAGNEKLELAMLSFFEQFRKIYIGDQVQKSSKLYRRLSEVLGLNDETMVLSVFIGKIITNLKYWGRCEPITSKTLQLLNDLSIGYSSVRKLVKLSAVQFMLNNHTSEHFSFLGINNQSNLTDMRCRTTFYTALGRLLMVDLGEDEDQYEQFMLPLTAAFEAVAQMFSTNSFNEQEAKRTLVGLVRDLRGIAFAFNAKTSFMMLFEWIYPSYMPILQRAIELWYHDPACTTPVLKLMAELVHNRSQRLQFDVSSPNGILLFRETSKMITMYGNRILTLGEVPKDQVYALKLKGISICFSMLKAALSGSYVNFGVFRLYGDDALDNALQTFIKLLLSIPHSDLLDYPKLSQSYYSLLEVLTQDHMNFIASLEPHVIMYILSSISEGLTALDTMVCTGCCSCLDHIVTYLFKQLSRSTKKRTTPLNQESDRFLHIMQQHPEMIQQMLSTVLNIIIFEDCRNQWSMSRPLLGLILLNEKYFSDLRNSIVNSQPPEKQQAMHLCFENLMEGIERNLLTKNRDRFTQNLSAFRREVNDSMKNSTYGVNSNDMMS
Description: Data are representative of 3 independent experiments (n = 3).
Whole cell lysates or tissue homogenates were prepared by using RIPA lysis buffer (50 mM Tris at pH 7.4, 150 mM NaCl, 1 mM EDTA, 0.5% NP-40, 1 mM NaF, 15% glycerol, and 20 mM β-glycerophosphate). A protease inhibitor cocktail (Mini Protease Inhibitor Cocktail; Roche) and a tyrosine phosphatase inhibitor, sodium orthovanadate (Na3VO4, 1 mM), were added freshly to the lysis buffer. Protein amounts were determined by BCA using a Thermo Fisher Scientific kit. Normalized protein amounts were subjected to an SDS-PAGE and transferred onto a nitrocellulose membrane for Western blotting. Proteins were visualized with a chemiluminescent detection kit (Pierce, Thermo Fisher Scientific). The protein levels for STAT1 (sc-346, E-23), STAT3 (sc-482, C-20), STAT5 (sc-74442, A-9), Crm1 (exportin 1) (sc-5595, H-300), CAS (exportin 2) (sc-271537, H-2), exportin 5 (sc-66885, H-300), and exportin 7 (sc-98639, H-82) were determined using antibodies from Santa Cruz Biotechnology Inc. Anti–exportin 3 (exportin T, 630622, LOS1 05-1525), anti–exportin 4 (3499-1), and anti–exportin 6 (11408-1-AP) were from MilliporeSigma, Epitomics, and Proteintech, respectively. […]

pY705-STAT3 = test: IL-6–induced pY705-STAT3 in splenic CD8+ T cells, Western blotting; format: cell-based; conditions: mouse splenic CD8+ T cells
STAT5 = test: Immunoprecipitation and Western blotting, STAT5; format: binding, human; conditions: immunoprecipitation, Western blotting, U251 cells
Excerpt: as §1, §2

cancer cells = test: Confocal microscopy of peptide localisation; format: cell-based; conditions: 1 μM, 1 hour
Description: Figure 8 PS-Gp130 and PS-MYC blocking peptides efficiently internalize into tumor cells to exert their functions. (A) For 1 hour 1 μM of PS-conjugated MYC (PS-MYC) and Gp130 (PS-Gp130) were incubated with cancer cells. PS-scramble MYC (PS-SC-MYC) was used as a control for PS-MYC. The peptide uptake was visualized by confocal microscopy and quantified by flow cytometry. Data are representative of 3 independent experiments (n = 3). (B) Upper panel: The binding of PS-Gp130 and STAT3 was examined by immunoprecipitation and Western blotting. PO-Gp130 was used as a control. For 4 hours prior to harvest, 1 μM of peptide was incubated with cells. Lower panel: PS-Gp130 inhibits IL-6–induced phosphorylation of STAT3 and p44/42 but not EGF-mediated signaling. The cells were preincubated with PS-Gp130 for 2 hours and then stimulated with 20 ng/mL of IL-6 or 30 ng/mL of EGF for 30 minutes before harvest and Western blotting. (C) Gene expression of STAT3 targets was examined by quantitative PCR after the treatment with 1 μM of PS-Gp130 with or without IL-6 stimulation as described above. Data shown are 3 independent experiments (n = 3); SD is shown. Unpaired Student’s t test; ***P < 0.005; **P < 0.01; *P < 0.05. (D) A total of 1 μM of PS-SC-MYC or PS-MYC was incubated with cells for 48 hours before the gene expression of MYC targets was examined by quantitative PCR. […]

Chain of STAT3 (P40763 whole entry): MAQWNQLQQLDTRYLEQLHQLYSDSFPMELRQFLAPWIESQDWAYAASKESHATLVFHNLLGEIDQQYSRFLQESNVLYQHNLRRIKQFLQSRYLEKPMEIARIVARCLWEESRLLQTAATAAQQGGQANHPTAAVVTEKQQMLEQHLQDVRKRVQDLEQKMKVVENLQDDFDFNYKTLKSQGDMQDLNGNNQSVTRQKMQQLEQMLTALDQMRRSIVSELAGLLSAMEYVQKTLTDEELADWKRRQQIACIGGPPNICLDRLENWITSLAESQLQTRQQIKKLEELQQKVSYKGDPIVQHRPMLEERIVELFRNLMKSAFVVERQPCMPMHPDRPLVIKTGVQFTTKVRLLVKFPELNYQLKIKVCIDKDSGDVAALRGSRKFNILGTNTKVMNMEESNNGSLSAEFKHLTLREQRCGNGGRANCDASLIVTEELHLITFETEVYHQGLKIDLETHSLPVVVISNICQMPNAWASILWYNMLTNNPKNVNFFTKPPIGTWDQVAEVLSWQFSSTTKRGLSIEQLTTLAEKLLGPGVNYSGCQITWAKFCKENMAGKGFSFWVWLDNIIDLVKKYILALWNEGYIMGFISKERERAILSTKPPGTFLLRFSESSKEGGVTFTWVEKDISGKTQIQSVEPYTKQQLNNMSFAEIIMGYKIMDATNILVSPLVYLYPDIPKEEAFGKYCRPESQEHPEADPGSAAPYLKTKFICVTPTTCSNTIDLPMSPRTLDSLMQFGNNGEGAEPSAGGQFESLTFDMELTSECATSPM

| Substance | binding to STAT3 protein (STAT3) | binding to exportin 7 (exportin 7) | IL-6–induced STAT3 activation (pY705 phosphorylation) in CD8+ T cells (pY705-STAT3) | binding to STAT5 protein (STAT5) | intracellular localisation / retention of peptide (cancer cells) |
| --- | --- | --- | --- | --- | --- |
| PDIPKEEAFGK685(Ac)YCRPESQEHPC-linker-T*C*C*A*T*G*A*G*C*T*T*C*C*T*G*A*T*G*C*T [PS-acet.-STAT3 peptide] | specifically bound | bound | downregulated | not | – |
| PS-Gp130: PS-conjugated Gp130 peptide (amino acids 901–910) with phospho-Tyr905 (MPKS[pY]LPQTV; also: phosphorothioate oligonucleotide conjugate; UniProt P40189 901-910, looked up, fragment) | – | – | – | – | detected in the cytoplasm or associated with the membrane |
